Experimental data published in patent US20260007133A1, “HERBICIDAL COMPOSITION COMPRISING AZINE COMPOUNDS” (BASF SE, priority 2022, published 2026).

Columns and labels:
Format in all cases: in vivo
Echinochloa crus-galli [1] = experiment: Greenhouse post-emergence (POST) herbicidal test on ECHCG
Description: (§1) The culture containers used were plastic pots containing loamy sand with approximately 3.0% of humus as substrate. The seeds of the test plants were sown separately for each species.
(§2) For the post-emergence treatment, the test plants were grown to a plant height of from 3 to 15 cm, depending on the plant habit, and only then treated with the active compounds which had been suspended or emulsified in water. To this end, the test plants were either sown directly, and grown in the same containers, or they were first grown separately as seedlings and transplanted into the test containers a few days prior to treatment.
(§3) Depending on the species, the plants were kept at 10-25° C. and 20-35° C., respectively.
(§4) The test period extended over 2 to 4 weeks. During this time, the plants were tended and their response to the individual treatments was evaluated.
(§5) Evaluation was carried out using a scale from 0 to 100. 100 means no emergence of the plants, or complete destruction of at least the above-ground parts, and 0 means no damage or normal course of growth. A good herbicidal activity is given at values of at least 70, and very good herbicidal activity is given at values of at least 85.
(§6) If not stated differently, the respective components A and B, and if appropriate, C were formulated as a 5% by weight strength emulsion concentrate and, with addition of the amount of solvent system, introduced into the spray liquor used for applying the active compound.
(§7) As indicated application was either post emergent (POST) at the respective growth stage (GS) of the weed (BBCH code), or pre-emergent (PRE). […]

Euphorbia heterophylla [2] = experiment: Greenhouse post-emergence (POST) herbicidal test on EPHHL
Description: as §1, §2, §3, §4, §5, §6, §7

Geranium pusillum = experiment: Greenhouse post-emergence (POST) herbicidal test on GERPU
Description: as §1, §2, §3, §4, §5, §6, §7

Abutilon theophrasti [3] = experiment: Greenhouse pre-emergence (PRE) herbicidal test on ABUTH
Description: as §1
(§8) The containers were irrigated gently to promote germination and growth and subsequently covered with transparent plastic hoods until the plants had rooted.
as §3, §4, §5, §7

Lolium multiflorum = experiment: Greenhouse pre-emergence (PRE) herbicidal test on LOLMU; settings: Lolium multiflorum, pre-emergence
Description: as §1, §8, §3, §4, §5, §7

Echinochloa crus-galli [4] = experiment: Greenhouse pre-emergence (PRE) herbicidal test on ECHCG; settings: Echinochloa crus-galli, pre-emergence, 432 h, read-out: % activity
Description: as §1, §8, §3, §4, §5, §7

Commelina benghalensis = experiment: Greenhouse pre-emergence (PRE) herbicidal test on COMBE
Description: as §1, §8, §3, §4, §5, §7

Digitaria sanguinalis = experiment: Greenhouse post-emergence (POST) herbicidal test on DIGSA
Description: as §1, §2, §3, §4, §5, §6, §7

Euphorbia heterophylla [5] = experiment: Greenhouse pre-emergence (PRE) herbicidal test on EPHHL; settings: Euphorbia heterophylla, pre-emergence
Description: as §1, §8, §3, §4, §5, §7

Alopecurus myosuroides = experiment: Greenhouse pre-emergence (PRE) herbicidal test on ALOMY; settings: Alopecurus myosuroides, pre-emergence
Description: as §1, §8, §3, §4, §5, §7

Amaranthus retroflexus = experiment: Greenhouse post-emergence (POST) herbicidal test on AMARE
Description: as §1, §2, §3, §4, §5, §6, §7

Abutilon theophrasti [6] = experiment: Greenhouse post-emergence (POST) herbicidal test on ABUTH; settings: for % activity: ABUTH POST
Description: as §1, §2, §3, §4, §5, §6, §7

Setaria viridis = experiment: Greenhouse pre-emergence (PRE) herbicidal test on SETVI
From the text: as §1
For the pre-emergence treatment, the active compounds, suspended or emulsified in water, were applied directly after sowing by means of finely distributing nozzles. The containers were irrigated gently to promote germination and growth and subsequently covered with transparent plastic hoods until the plants had rooted. This cover caused uniform germination of the test plants unless this was adversely affected by the active compounds.
as §3, §4, §5, §6, §7

Ambrosia artemisiifolia = experiment: Greenhouse pre-emergence (PRE) herbicidal test on AMBEL; settings: PRE, AMBEL
Description: as §1, §8, §3, §4, §5, §7

[7] = Digitaria sanguinalis, post-emergence, 432 h, read-out: % activity
[8] = Geranium pusillum, post-emergence, 432 h, read-out: % activity
[9] = Abutilon theophrasti, pre-emergence, read-out: % activity
[10] = Echinochloa crus-galli, post-emergence, 480 h, read-out: % activity

O=C(O)COc1ccc(Cl)cc1Cl [2,4-D]
% activity (Echinochloa crus-galli [1]; ECHCG POST, use rate 37.5 gai/ha): 20%
% activity (Euphorbia heterophylla [2]; EPHHL POST, use rate 150 gai/ha): 65%
% activity (Geranium pusillum; GERPU POST, use rate 150 gai/ha): 70%

N#Cc1cc(Br)c(O)c(Br)c1 [Bromoxynil, bromoxynil]
pest or weed control at 120 g/ha (Abutilon theophrasti [3]; Abutilon theophrasti, pre-emergence, 432 h, read-out: % activity): 0%
pest or weed control at 30 g/ha (Lolium multiflorum; 432 h, read-out: % activity): 0%
pest or weed control at 120 g/ha (Lolium multiflorum; 432 h, read-out: % activity): 0%
pest or weed control at 30 g/ha (Echinochloa crus-galli [4]): 0%
pest or weed control at 120 g/ha (Echinochloa crus-galli [4]): 0%
pest or weed control at 30 g/ha (Echinochloa crus-galli [1]; Echinochloa crus-galli, post-emergence, 432 h, read-out: % activity): 0%
pest or weed control at 30 g/ha (Commelina benghalensis; Commelina benghalensis, pre-emergence, 432 h, read-out: % activity): 0%
pest or weed control at 30 g/ha (Digitaria sanguinalis; [7]): 0%
pest or weed control at 120 g/ha (Digitaria sanguinalis; [7]): 15%
pest or weed control at 30 g/ha (Euphorbia heterophylla [5]; 432 h, read-out: % activity): 0%
pest or weed control at 30 g/ha (Alopecurus myosuroides; 432 h, read-out: % activity): 0%
pest or weed control at 120 g/ha (Alopecurus myosuroides; 432 h, read-out: % activity): 0%
pest or weed control at 30 g/ha (Euphorbia heterophylla [2]; Euphorbia heterophylla, post-emergence, 432 h, read-out: % activity): 70%
pest or weed control at 30 g/ha (Geranium pusillum; [8]): 5%
pest or weed control at 120 g/ha (Geranium pusillum; [8]): 20%
pest or weed control at 30 g/ha (Amaranthus retroflexus; Amaranthus retroflexus, post-emergence, 432 h, read-out: % activity): 0%

COc1c(Cl)ccc(Cl)c1C(=O)O [Dicamba, dicamba]
inhibition at 31.25 g/ha (Abutilon theophrasti [6]; Abutilon theophrasti, post-emergence, POST, ABUTH, use rate 31.25 gai/ha): 60%
inhibition at 62.5 g/ha (Abutilon theophrasti [6]; Abutilon theophrasti, post-emergence, POST, ABUTH, use rate 62.5 gai/ha): 65%
inhibition at 31.25 g/ha (Euphorbia heterophylla [2]; Euphorbia heterophylla, post-emergence, POST, EPHHL, use rate 31.25 gai/ha): 10%
inhibition at 62.5 g/ha (Euphorbia heterophylla [2]; Euphorbia heterophylla, post-emergence, POST, EPHHL, use rate 62.5 gai/ha): 35%

C/C(=N\NC(=O)Nc1cc(F)cc(F)c1)c1ncccc1C(=O)O [Diflufenzopyr, diflufenzopyr]
inhibition at 3.8 g/ha (Abutilon theophrasti [3]; [9]): 0%
inhibition at 15 g/ha (Abutilon theophrasti [3]; [9]): 0%
inhibition at 3.8 g/ha (Lolium multiflorum; read-out: % activity): 0%
inhibition at 15 g/ha (Setaria viridis; Setaria viridis, pre-emergence, read-out: % activity): 50%
inhibition at 3.8 g/ha (Euphorbia heterophylla [5]; read-out: % activity): 0%

COC[C@H](C)N(C(=O)CCl)c1c(C)csc1C [Dimethenamid-P, dimethenamid-P]
% activity (Abutilon theophrasti [6]; use rate 50 gai/ha): 0%
% activity (Abutilon theophrasti [6]; use rate 200 gai/ha): 25%
% activity (Amaranthus retroflexus; AMARE POST, use rate 200 gai/ha): 0%

CP(=O)(O)CCC(N)C(=O)O (stereo not drawn) [Glufosinate-Ammonium, glufosinate-ammonium]
inhibition at 75 g/ha (Echinochloa crus-galli [1]; [10]): 0%
inhibition at 150 g/ha (Echinochloa crus-galli [1]; [10]): 30%
inhibition at 150 g/ha (Digitaria sanguinalis; Digitaria sanguinalis, post-emergence, 480 h, read-out: % activity): 95%
inhibition at 75 g/ha (Abutilon theophrasti [6]; Abutilon theophrasti, post-emergence, 480 h, read-out: % activity): 30%
inhibition at 150 g/ha (Euphorbia heterophylla [2]; Euphorbia heterophylla, post-emergence, 480 h, read-out: % activity): 45%
inhibition at 75 g/ha (Geranium pusillum; Geranium pusillum, post-emergence, 480 h, read-out: % activity): 35%

CP(=O)(O)CC[C@H](N)C(=O)O.N [L-Glufosinate-P-Ammonium]
% activity (Echinochloa crus-galli [1]; POST, ECHCG, use rate 75 gai/ha, 20 DAT): 30%
% activity (Geranium pusillum; POST, GERPU, use rate 75 gai/ha, 20 DAT): 65%

CCCC(=NOCC(C)Oc1ccc(Cl)cc1)C1=C(O)CC(C2CCCSC2)CC1=O (stereo not drawn) [Profoxydim, profoxydim]
% activity (Echinochloa crus-galli [1]; ECHCG POST, use rate 6.3 gai/ha): 80%
% activity (Echinochloa crus-galli [1]; ECHCG POST, use rate 12.5 gai/ha): 85%
% activity (Digitaria sanguinalis; DIGSA POST, use rate 6.3 gai/ha): 60%
% activity (Abutilon theophrasti [6]; use rate 6.3 gai/ha): 20%
% activity (Geranium pusillum; GERPU POST, use rate 6.3 gai/ha): 0%

C#CC(C)(C)NC(=O)c1cc(Cl)cc(Cl)c1 [Propyzamide, propyzamide]
pest or weed control at 250 g/ha (Abutilon theophrasti [3]; Abutilon theophrasti, pre-emergence, 432 h, PRE, ABUTH, Propyzamide solo 250 gai/ha, 18 DAT): 0%
pest or weed control at 1000 g/ha (Abutilon theophrasti [3]; Abutilon theophrasti, pre-emergence, 432 h, PRE, ABUTH, Propyzamide solo 1000 gai/ha, 18 DAT): 10%
pest or weed control at 250 g/ha (Echinochloa crus-galli [1]; Echinochloa crus-galli, post-emergence, 432 h, POST, ECHCG, Propyzamide solo 250 gai/ha, 18 DAT, read-out: % activity): 0%
pest or weed control at 1000 g/ha (Echinochloa crus-galli [1]; Echinochloa crus-galli, post-emergence, 432 h, POST, ECHCG, Propyzamide solo 1000 gai/ha, 18 DAT): 30%
pest or weed control at 250 g/ha (Ambrosia artemisiifolia; Ambrosia artemisiifolia, pre-emergence, 432 h, Propyzamide solo 250 gai/ha, 18 DAT, read-out: % activity): 0%
pest or weed control at 1000 g/ha (Abutilon theophrasti [6]; Abutilon theophrasti, post-emergence, 432 h, POST, ABUTH, Propyzamide solo 1000 gai/ha, 18 DAT): 5%
pest or weed control at 250 g/ha (Euphorbia heterophylla [5]; 432 h, PRE, EPHHL, Propyzamide solo 250 gai/ha, 18 DAT, read-out: % activity): 10%
pest or weed control at 1000 g/ha (Euphorbia heterophylla [5]; 432 h, PRE, EPHHL, Propyzamide solo 1000 gai/ha, 18 DAT): 15%
pest or weed control at 250 g/ha (Euphorbia heterophylla [2]; Euphorbia heterophylla, post-emergence, 432 h, POST, EPHHL, Propyzamide solo 250 gai/ha, 18 DAT, read-out: % activity): 0%
pest or weed control at 1000 g/ha (Geranium pusillum; Geranium pusillum, post-emergence, 432 h, POST, GERPU, Propyzamide solo 1000 gai/ha, 18 DAT): 20%
pest or weed control at 250 g/ha (Amaranthus retroflexus; Amaranthus retroflexus, post-emergence, 432 h, POST, AMARE, Propyzamide solo 250 gai/ha, 18 DAT, read-out: % activity): 20%
pest or weed control at 1000 g/ha (Amaranthus retroflexus; Amaranthus retroflexus, post-emergence, 432 h, POST, AMARE, Propyzamide solo 1000 gai/ha, 18 DAT): 50%

COc1cc(OC)n2nc(NS(=O)(=O)c3c(C(F)(F)F)ccnc3OC)nc2n1 [Pyroxsulam, pyroxsulam]
% activity (Abutilon theophrasti [3]; PRE, ABUTH, Pyroxsulam solo 0.25 gai/ha, 20 DAT): 0%
% activity (Abutilon theophrasti [3]; PRE, ABUTH, Pyroxsulam solo 0.5 gai/ha, 20 DAT): 5%
% activity (Ambrosia artemisiifolia; Pyroxsulam solo 0.25 gai/ha, 20 DAT): 15%
% activity (Commelina benghalensis; PRE, COMBE, Pyroxsulam solo 0.25 gai/ha, 20 DAT): 10%
% activity (Setaria viridis; PRE, SETVI, Pyroxsulam solo 0.25 gai/ha, 20 DAT): 10%

CCCN(CCC)c1c([N+](=O)[O-])cc(C(F)(F)F)cc1[N+](=O)[O-] [Trifluralin, trifluralin]
pest or weed control at 500 g/ha (Abutilon theophrasti [3]; Abutilon theophrasti, pre-emergence, 480 h, PRE, ABUTH, Trifluralin solo 500 gai/ha, 20 DAT, read-out: % activity): 25%
pest or weed control at 500 g/ha (Lolium multiflorum; 480 h, PRE, LOLMU, Trifluralin solo 500 gai/ha, 20 DAT, read-out: % activity): 5%
pest or weed control at 1000 g/ha (Lolium multiflorum; 480 h, PRE, LOLMU, Trifluralin solo 1000 gai/ha, 20 DAT): 15%
pest or weed control at 500 g/ha (Ambrosia artemisiifolia; Ambrosia artemisiifolia, pre-emergence, 480 h, Trifluralin solo 500 gai/ha, 20 DAT, read-out: % activity): 10%
pest or weed control at 1000 g/ha (Commelina benghalensis; Commelina benghalensis, pre-emergence, 480 h, PRE, COMBE, Trifluralin solo 1000 gai/ha, 20 DAT): 80%
pest or weed control at 500 g/ha (Abutilon theophrasti [6]; Abutilon theophrasti, post-emergence, 480 h, POST, ABUTH, Trifluralin solo 500 gai/ha, 20 DAT, read-out: % activity): 15%
pest or weed control at 1000 g/ha (Abutilon theophrasti [6]; Abutilon theophrasti, post-emergence, 480 h, POST, ABUTH, Trifluralin solo 1000 gai/ha, 20 DAT): 70%
pest or weed control at 1000 g/ha (Euphorbia heterophylla [5]; 480 h, PRE, EPHHL, Trifluralin solo 1000 gai/ha, 20 DAT): 35%
pest or weed control at 1000 g/ha (Alopecurus myosuroides; 480 h, PRE, ALOMY, Trifluralin solo 1000 gai/ha, 20 DAT): 65%
pest or weed control at 500 g/ha (Geranium pusillum; Geranium pusillum, post-emergence, 480 h, POST, GERPU, Trifluralin solo 500 gai/ha, 20 DAT, read-out: % activity): 25%
pest or weed control at 1000 g/ha (Geranium pusillum; Geranium pusillum, post-emergence, 480 h, POST, GERPU, Trifluralin solo 1000 gai/ha, 20 DAT): 85%
